Measurements: ChEMBL document CHEMBL1201862, “PubChem BioAssay data set” (2004)
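A five-concentration, 48-hour dose response in 96-well plates underlies each endpoint, interpolated linearly between surrounding concentrations. Here, GI50 denotes the concentration required for 50% inhibition of growth.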 Calls of active or inactive are those of the source. Rule as the data show it: active = GI50 up to about 1.1 µM and inactive = higher.

Key:
Experiment in all cases: inhibition of tumour cell growth, NCI panel, 48 h
K562 = system: K562
HCC 2998 = system: HCC 2998
Hs-578T = system: Hs-578T
SK-MEL-5 = system: SK-MEL-5
COLO 205 = system: COLO 205
MDA-MB-435 = system: MDA-MB-435
UO-31 = system: UO-31
UACC-257 = system: UACC-257
MOLT-4 = system: MOLT-4
SR = system: SR
RXF 393 = system: RXF 393
MDA-MB-231 = system: MDA-MB-231
U-251 = system: U-251
EKVX = system: EKVX
UACC-62 = system: UACC-62
RPMI-8226 = system: RPMI-8226
HL-60 = system: HL-60
T47D = system: T47D
SF-539 = system: SF-539
Malme-3M = system: Malme-3M

SMILES | GI50 (K562) | GI50 (HCC 2998) | GI50 (Hs-578T) | GI50 (SK-MEL-5) | GI50 (COLO 205) | GI50 (MDA-MB-435) | GI50 (UO-31) | GI50 (UACC-257) | GI50 (MOLT-4) | GI50 (SR) | GI50 (RXF 393) | GI50 (MDA-MB-231) | GI50 (U-251) | GI50 (EKVX) | GI50 (UACC-62) | GI50 (RPMI-8226) | GI50 (HL-60) | GI50 (T47D) | GI50 (SF-539) | GI50 (Malme-3M)
CCOC(=O)C1(CO)CSCCSC1 | > 100 µM (inactive) | > 100 µM (inactive) | > 100 µM (inactive) | > 100 µM (inactive) | > 100 µM (inactive) | > 100 µM (inactive) | > 100 µM (inactive) | > 100 µM (inactive) | > 100 µM (inactive) | > 100 µM (inactive) | > 100 µM (inactive) | > 100 µM (inactive) | > 100 µM (inactive) | – | – | – | – | – | – | –
COc1cc(/C=c2\sc3n(c2=O)C(c2ccc(Cl)cc2)C2=C(CCCC2C)N=3)cc(OC)c1OC (stereo unspecified) | > 100 µM (inactive) | – | > 100 µM (inactive) | 83 µM (inactive) | – | > 100 µM (inactive) | > 100 µM (inactive) | > 100 µM (inactive) | > 100 µM (inactive) | > 100 µM (inactive) | > 100 µM (inactive) | 25.9 µM (inactive) | > 100 µM (inactive) | > 100 µM (inactive) | > 100 µM (inactive) | > 100 µM (inactive) | > 100 µM (inactive) | – | – | –
O/N=C1/CC2(N3CCOCC3)C3CC/C(=N\O)C2CC1(Cc1ccccc1)C3 (stereo unspecified) | 74 µM (inactive) | > 100 µM (inactive) | – | 44.4 µM (inactive) | 82 µM (inactive) | > 100 µM (inactive) | > 100 µM (inactive) | 66.8 µM (inactive) | > 100 µM (inactive) | > 100 µM (inactive) | 18.3 µM (inactive) | > 100 µM (inactive) | > 100 µM (inactive) | > 100 µM (inactive) | > 100 µM (inactive) | – | 67 µM (inactive) | 67 µM (inactive) | > 100 µM (inactive) | > 100 µM (inactive)
CCOC(=O)C1(C#N)C(c2ccccc2)CC(O)(c2ccc([N+](=O)[O-])cc2)C(C(=O)c2ccc([N+](=O)[O-])cc2)C1c1ccccc1 (stereo unspecified) | > 100 µM (inactive) | > 100 µM (inactive) | – | – | > 100 µM (inactive) | – | > 100 µM (inactive) | > 100 µM (inactive) | > 100 µM (inactive) | > 100 µM (inactive) | 15.5 µM (inactive) | – | > 100 µM (inactive) | > 100 µM (inactive) | > 100 µM (inactive) | > 100 µM (inactive) | > 100 µM (inactive) | – | – | > 100 µM (inactive)
CC1(C)C=[N+]([O-])C(C)(C)N1O | > 10 µM (inactive) | > 10 µM (inactive) | – | – | > 10 µM (inactive) | > 10 µM (inactive) | > 10 µM (inactive) | > 10 µM (inactive) | > 10 µM (inactive) | > 10 µM (inactive) | > 10 µM (inactive) | > 10 µM (inactive) | > 10 µM (inactive) | > 10 µM (inactive) | – | > 10 µM (inactive) | > 10 µM (inactive) | > 10 µM (inactive) | – | > 10 µM (inactive)
O=C1c2ccccc2C(=O)N1Cc1ccccc1-c1c2nc(c(-c3ccccc3CN3C(=O)c4ccccc4C3=O)c3ccc([nH]3)c(-c3ccccc3CN3C(=O)c4ccccc4C3=O)c3nc(c(-c4ccccc4CN4C(=O)c5ccccc5C4=O)c4ccc1[nH]4)C=C3)C=C2 | > 100 µM (inactive) | – | – | 52.7 µM (inactive) | 74 µM (inactive) | – | > 100 µM (inactive) | > 100 µM (inactive) | > 100 µM (inactive) | > 100 µM (inactive) | > 100 µM (inactive) | – | > 100 µM (inactive) | – | > 100 µM (inactive) | > 100 µM (inactive) | > 100 µM (inactive) | – | > 100 µM (inactive) | > 100 µM (inactive)
COc1ccc(C2c3c(n(C)c(=O)n(C)c3=O)OC(N(C)C)(N(C)C)C2(F)F)cc1 (stereo unspecified) | 3.2 µM (inactive) | > 100 µM (inactive) | – | > 100 µM (inactive) | > 100 µM (inactive) | > 100 µM (inactive) | > 100 µM (inactive) | > 100 µM (inactive) | 2.92 µM (inactive) | – | > 100 µM (inactive) | > 100 µM (inactive) | > 100 µM (inactive) | > 100 µM (inactive) | > 100 µM (inactive) | > 100 µM (inactive) | – | > 100 µM (inactive) | > 100 µM (inactive) | –
COc1cc2c(c(OC)c1OC)-c1ccc(SC)c(=O)cc1[C@@H](NCc1ccc(C#N)cc1)CC2 | 0.00383 µM (active) | 0.00291 µM (active) | – | 0.00365 µM (active) | 0.0035 µM (active) | – | 0.0764 µM (active) | 0.00671 µM (active) | 0.00578 µM (active) | 0.002 µM (active) | 0.00185 µM (active) | – | 0.0031 µM (active) | 0.00726 µM (active) | 0.00264 µM (active) | 0.00315 µM (active) | 0.00301 µM (active) | – | 0.00252 µM (active) | 0.00564 µM (active)
CCOc1ccc(NCC(=O)N2CC(=O)Nc3ccccc32)cc1 | > 100 µM (inactive) | > 100 µM (inactive) | – | > 100 µM (inactive) | > 100 µM (inactive) | – | > 100 µM (inactive) | > 100 µM (inactive) | > 100 µM (inactive) | > 100 µM (inactive) | > 100 µM (inactive) | – | > 100 µM (inactive) | > 100 µM (inactive) | > 100 µM (inactive) | > 100 µM (inactive) | > 100 µM (inactive) | – | > 100 µM (inactive) | > 100 µM (inactive)
COc1ccc(-c2cc(-c3ccc(Nc4ccnc5cc(Cl)ccc45)cc3)nc(N)c2C#N)cc1 | > 100 µM (inactive) | > 100 µM (inactive) | – | – | > 100 µM (inactive) | > 100 µM (inactive) | 27.4 µM (inactive) | – | > 100 µM (inactive) | > 100 µM (inactive) | > 100 µM (inactive) | > 100 µM (inactive) | > 100 µM (inactive) | > 100 µM (inactive) | > 100 µM (inactive) | > 100 µM (inactive) | > 100 µM (inactive) | > 100 µM (inactive) | > 100 µM (inactive) | > 100 µM (inactive)
CCOc1ccc(NC(=O)/C(=N\NC(C)(C)C)C2C(=O)Nc3ccccc3[S+]2[O-])cc1 (stereo unspecified) | > 100 µM (inactive) | > 100 µM (inactive) | > 100 µM (inactive) | > 100 µM (inactive) | > 100 µM (inactive) | > 100 µM (inactive) | > 100 µM (inactive) | > 100 µM (inactive) | > 100 µM (inactive) | 45.1 µM (inactive) | > 100 µM (inactive) | – | > 100 µM (inactive) | > 100 µM (inactive) | > 100 µM (inactive) | 20.7 µM (inactive) | > 100 µM (inactive) | > 100 µM (inactive) | > 100 µM (inactive) | > 100 µM (inactive)
O=C1NC(=O)C(CC(C(=O)C(=O)Nc2ccccc2Cl)C(=O)c2ccc3ccccc3c2)C(=O)N1 (stereo unspecified) | – | > 100 µM (inactive) | > 100 µM (inactive) | > 100 µM (inactive) | > 100 µM (inactive) | > 100 µM (inactive) | 63.7 µM (inactive) | > 100 µM (inactive) | > 100 µM (inactive) | – | > 100 µM (inactive) | > 100 µM (inactive) | > 100 µM (inactive) | > 100 µM (inactive) | > 100 µM (inactive) | – | > 100 µM (inactive) | – | > 100 µM (inactive) | –
CC(C)c1cccc(C(C)C)c1NC(=S)Nc1ccccc1 | 70.6 µM (inactive) | > 100 µM (inactive) | – | 48 µM (inactive) | > 100 µM (inactive) | – | > 100 µM (inactive) | > 100 µM (inactive) | > 100 µM (inactive) | > 100 µM (inactive) | 75.5 µM (inactive) | – | > 100 µM (inactive) | > 100 µM (inactive) | > 100 µM (inactive) | > 100 µM (inactive) | 6.81 µM (inactive) | – | > 100 µM (inactive) | > 100 µM (inactive)
CN1CC[C@@]2(c3cccc(O)c3)CC(=O)/C(=C/c3ccccc3)[C@H]1C2.[O-][Cl+3]([O-])([O-])O | 2.58 µM (inactive) | 10.4 µM (inactive) | 3.35 µM (inactive) | 17.8 µM (inactive) | 8.05 µM (inactive) | 3.05 µM (inactive) | 12.9 µM (inactive) | 16.1 µM (inactive) | 2.49 µM (inactive) | 2.61 µM (inactive) | 8.17 µM (inactive) | 6.82 µM (inactive) | 2.59 µM (inactive) | 14.9 µM (inactive) | – | 2.44 µM (inactive) | 2.25 µM (inactive) | – | 16.9 µM (inactive) | 15 µM (inactive)
O=CC1OC(=O)c2cc(O)c(O)c(O)c2-c2c(cc(O)c(O)c2O)C(=O)OC1C(O)C(O)CO (stereo unspecified) | 21.1 µM (inactive) | > 100 µM (inactive) | 54 µM (inactive) | 51.6 µM (inactive) | 45.5 µM (inactive) | 18.3 µM (inactive) | > 100 µM (inactive) | 82 µM (inactive) | 22.9 µM (inactive) | 20.6 µM (inactive) | > 100 µM (inactive) | 17.1 µM (inactive) | 17.9 µM (inactive) | > 100 µM (inactive) | – | 26.2 µM (inactive) | 35.4 µM (inactive) | – | > 100 µM (inactive) | > 100 µM (inactive)
O=C(/C=C/c1ccc(O)c(O)c1)NCCc1ccc(-c2ccccc2)cc1 | 27.2 µM (inactive) | 54.3 µM (inactive) | > 100 µM (inactive) | 45.8 µM (inactive) | 78.3 µM (inactive) | – | 94.8 µM (inactive) | > 100 µM (inactive) | 41.3 µM (inactive) | – | 57.1 µM (inactive) | – | – | > 100 µM (inactive) | – | 39.4 µM (inactive) | 28.3 µM (inactive) | > 100 µM (inactive) | > 100 µM (inactive) | 17.9 µM (inactive)
